Measurements published in patent US5977133A, “Pyridone antibiotic with improved safety profile” (priority 1998, dated 1999).
Values after ≈ are worked out from the molar mass of the structure shown.

Legend:
[1] = system: S. aureus (CiproS); test: In vitro MIC, agar dilution; format: cell-based; conditions: Staphylococcus aureus
[2] = system: S. aureus (CiproR); test: In vitro MIC, agar dilution; format: cell-based; conditions: Staphylococcus aureus
[3] = system: S. epidermidis (CiproS); test: In vitro MIC, agar dilution; format: cell-based; conditions: Staphylococcus epidermidis
[4] = system: S. epidermidis (CiproR); test: In vitro MIC, agar dilution; format: cell-based; conditions: Staphylococcus epidermidis
[5] = system: S. pneumoniae (PenS); test: In vitro MIC, agar dilution; format: cell-based; conditions: Streptococcus pneumoniae
[6] = system: S. pneumoniae (PenR); test: In vitro MIC, agar dilution; format: cell-based; conditions: Streptococcus pneumoniae
[7] = system: S. pneumoniae (CiproR); test: In vitro MIC, agar dilution; format: cell-based; conditions: Streptococcus pneumoniae, read-out: MIC Range
[8] = system: S. pyogenes; test: In vitro MIC, agar dilution; format: cell-based; conditions: Streptococcus pyogenes
[9] = system: E. faecium (CiproS); test: In vitro MIC, agar dilution; format: cell-based; conditions: Enterococcus faecium
[10] = system: E. faecium (VanS); test: In vitro MIC, agar dilution; format: cell-based; conditions: Enterococcus faecium
[11] = system: E. faecalis (VanS); test: In vitro MIC, agar dilution; format: cell-based; conditions: Enterococcus faecalis
[12] = system: Enterococcus spp. (VanR); test: In vitro MIC, agar dilution; format: cell-based; conditions: Enterococcus
[13] = system: E. coli; test: In vitro MIC, agar dilution; format: cell-based; conditions: Escherichia coli, 25 isolates
Method: (§1) Each plate was inoculated with 1:100 (or 1:10 for slow-growing strains, primarily Micrococcus and Streptococcus) dilutions of up to 32 different microorganisms, using a Steers replicator block calibrated to deliver approximately 10^4 colony forming units (CFU's). The inoculated plates were incubated at from about 35° C. to about 37 ° C. for approximately 20-24 hours. In addition, a control plate using BHI agar containing no test compound was prepared and incubated at the beginning and at the end of each test. The quinolone antibacterial ciprofloxacin was used as a control ("Cntl").
(§2) The numbers below the microorganism species indicate the nunbers of isolates tested. […] The MIC is defined as the lowest concentration of test compound yielding no growth (a slight haze or sparsely isolated colonies at the inoculum spot) as compared to the growth control containing no test compound.

[14] = system: Salmonella spp.; test: In vitro MIC, agar dilution; format: cell-based; conditions: 23 isolates
Method: as §1, §2

[15] = system: Shigella spp.; test: microbe, parasite or virus in culture; format: cell-based; conditions: read-out: MIC Range
[16] = system: Klebsiella spp.; test: In vitro MIC, agar dilution; format: cell-based; conditions: Klebsiella
[17] = system: C. freundii; test: In vitro MIC, agar dilution; format: cell-based; conditions: Citrobacter freundii
[18] = system: P. mirabilis; test: In vitro MIC, agar dilution; format: cell-based; conditions: Proteus mirabilis
[19] = system: Providencia spp.; test: In vitro MIC, agar dilution; format: cell-based
[20] = system: Enterobacter spp.; test: In vitro MIC, agar dilution; format: cell-based; conditions: Enterobacter
[21] = system: P. aeruginosa (CiproS); test: In vitro MIC, agar dilution; format: cell-based; conditions: Pseudomonas aeruginosa
[22] = system: P. aeruginosa (CiproR); test: In vitro MIC, agar dilution; format: cell-based
[23] = system: B. fragilis; test: In vitro MIC, agar dilution; format: cell-based; conditions: Bacteroides fragilis
[24] = system: C. difficile; test: In vitro MIC, agar dilution; format: cell-based; conditions: Clostridioides difficile
[25] = system: H. influenzae; test: In vitro MIC, agar dilution; format: cell-based; conditions: Haemophilus influenzae
[26] = system: M. catarrhalis; test: In vitro MIC, agar dilution; format: cell-based; conditions: Moraxella catarrhalis
[27] = system: Legionella spp.; test: microbe, parasite or virus in culture; format: cell-based; conditions: Legionella
[28] = system: M. pneumoniae; test: In vitro MIC, agar dilution; format: cell-based; conditions: Mycoplasmoides pneumoniae, read-out: MIC Range
[29] = system: N. gonorrhoeae; test: In vitro MIC, agar dilution; format: cell-based; conditions: Neisseria gonorrhoeae
[30] = system: H. pylori; test: In vitro MIC, agar dilution; format: cell-based; conditions: Helicobacter pylori
[31] = system: M. avium; test: In vitro MIC, agar dilution; format: cell-based; conditions: Mycobacterium avium
[32] = system: ciprofloxacin resistant staphylococcal strains; test: In vitro MIC, agar dilution (summary in text); format: cell-based
[33] = system: staphylococcus aureus NTCC 10649; test: In vivo efficacy, mouse infection (ED50); conditions: Staphylococcus aureus, NTCC10649, in Mus musculus, 168 h
[34] = system: Streptococcus pneumoniae 6303; test: In vivo efficacy, mouse infection (ED50); conditions: Streptococcus pneumoniae, 6303, in Mus musculus, 168 h
[35] = system: Escherichia coli JUHL; test: In vivo efficacy, mouse infection (ED50); conditions: Escherichia coli, in Mus musculus, 168 h

Molecule `O=C(O)c1cn(C2CC2)c2cc(N3CCNCC3)c(F)cc2c1=O` [Ciprofloxacin, ciprofloxacin] has an MIC50 [1] of 0.25 µg/mL (≈ 0.754 µM), an MIC90 [1] of 0.5 µg/mL (≈ 1.51 µM) and an MIC ([1]; read-out: MIC Range) of 0.06 to 0.5 µg/mL (≈ 0.181 to 1.51 µM). For the same molecule, the MIC50 [2] was 32 µg/mL (≈ 96.6 µM), the MIC90 [2] was 128 µg/mL (≈ 386 µM) and the MIC50 [3] was 0.25 µg/mL (≈ 0.754 µM). The MIC90 [3] was 0.25 µg/mL (≈ 0.754 µM), the MIC ([3]; read-out: MIC Range) was 0.06 to 0.5 µg/mL (≈ 0.181 to 1.51 µM) and the MIC50 [4] was 16 µg/mL (≈ 48.3 µM). For the same molecule, the MIC90 [4] was > 128 µg/mL, the MIC50 [5] was 2 µg/mL (≈ 6.04 µM) and the MIC90 [5] was 4 µg/mL (≈ 12.1 µM). It also gave an MIC ([5]; read-out: MIC Range) of 1 to 8 µg/mL (≈ 3.02 to 24.1 µM), an MIC50 [6] of 2 µg/mL (≈ 6.04 µM) and an MIC90 [6] of 2 µg/mL (≈ 6.04 µM). For the same molecule, the MIC ([6]; read-out: MIC Range) was 1 to 2 µg/mL (≈ 3.02 to 6.04 µM), the MIC [7] was 4 to 8 µg/mL (≈ 12.1 to 24.1 µM) and the MIC50 [8] was 0.5 µg/mL (≈ 1.51 µM). The MIC90 [8] was 1 µg/mL (≈ 3.02 µM), the MIC ([8]; read-out: MIC Range) was 0.25 to 4 µg/mL (≈ 0.754 to 12.1 µM) and the MIC50 [9] was 2 µg/mL (≈ 6.04 µM). The MIC90 [9] was 4 µg/mL (≈ 12.1 µM), the MIC ([9]; read-out: MIC Range) was 2 to 4 µg/mL (≈ 6.04 to 12.1 µM) and the MIC50 [10] was 4 µg/mL (≈ 12.1 µM). It also gave an MIC90 [10] of 4 µg/mL (≈ 12.1 µM), an MIC ([10]; read-out: MIC Range) of 1 to 4 µg/mL (≈ 3.02 to 12.1 µM) and an MIC50 [11] of 2 µg/mL (≈ 6.04 µM). The MIC90 [11] was 4 µg/mL (≈ 12.1 µM), the MIC ([11]; read-out: MIC Range) was 1 to 4 µg/mL (≈ 3.02 to 12.1 µM) and the MIC50 [12] was 4 µg/mL (≈ 12.1 µM). It also gave an MIC90 [12] of 4 µg/mL (≈ 12.1 µM), an MIC [13] of 0.008 to 0.03 µg/mL (≈ 0.0241 to 0.0905 µM) and an MIC50 ([13]; read-out: MIC50) of 0.03 µg/mL (≈ 0.0905 µM). The MIC90 ([13]; read-out: MIC90) was 0.03 µg/mL (≈ 0.0905 µM), the MIC [14] was 0.004 to 0.5 µg/mL (≈ 0.0121 to 1.51 µM) and the MIC50 ([14]; read-out: MIC50) was 0.03 µg/mL (≈ 0.0905 µM). The MIC90 ([14]; read-out: MIC90) was 0.03 µg/mL (≈ 0.0905 µM), the MIC [15] was 0.008 to 0.015 µg/mL (≈ 0.0241 to 0.0453 µM) and the MIC50 [16] was 0.06 µg/mL (≈ 0.181 µM). It also gave an MIC90 [16] of 0.12 µg/mL (≈ 0.362 µM), an MIC ([16]; read-out: MIC Range) of 0.004 to 0.5 µg/mL (≈ 0.0121 to 1.51 µM) and an MIC50 [17] of 0.015 µg/mL (≈ 0.0453 µM). For the same molecule, the MIC90 [17] was 0.12 µg/mL (≈ 0.362 µM), the MIC ([17]; read-out: MIC Range) was 0.004 to 0.5 µg/mL (≈ 0.0121 to 1.51 µM) and the MIC50 [18] was 0.015 µg/mL (≈ 0.0453 µM). For the same molecule, the MIC90 [18] was 0.03 µg/mL (≈ 0.0905 µM), the MIC ([18]; read-out: MIC Range) was 0.015 to 0.06 µg/mL (≈ 0.0453 to 0.181 µM) and the MIC50 ([19]; Providencia) was 0.03 µg/mL (≈ 0.0905 µM). For the same molecule, the MIC90 ([19]; Providencia) was 0.25 µg/mL (≈ 0.754 µM), the MIC ([19]; Providencia spp., 28 isolates, read-out: MIC Range) was 0.015 to 0.25 µg/mL (≈ 0.0453 to 0.754 µM) and the MIC50 [20] was 0.015 µg/mL (≈ 0.0453 µM). For the same molecule, the MIC90 [20] was 0.03 µg/mL (≈ 0.0905 µM), the MIC ([20]; read-out: MIC Range) was 0.008 to 0.12 µg/mL (≈ 0.0241 to 0.362 µM) and the MIC50 [21] was 0.12 µg/mL (≈ 0.362 µM). For the same molecule, the MIC90 [21] was 0.5 µg/mL (≈ 1.51 µM), the MIC ([21]; read-out: MIC Range) was 0.06 to 2 µg/mL (≈ 0.181 to 6.04 µM) and the MIC50 ([22]; Pseudomonas aeruginosa) was 64 µg/mL (≈ 193 µM). For the same molecule, the MIC90 ([22]; Pseudomonas aeruginosa) was 128 µg/mL (≈ 386 µM), the MIC90 ([22]; ciprofloxacin resistant P. aeruginosa strains) was 128 (g/mL and the MIC50 [23] was 8 µg/mL (≈ 24.1 µM). It also gave an MIC90 [23] of 16 µg/mL (≈ 48.3 µM), an MIC ([23]; read-out: MIC Range) of 4 to 32 µg/mL (≈ 12.1 to 96.6 µM) and an MIC50 [24] of 16 µg/mL (≈ 48.3 µM). The MIC90 [24] was 16 µg/mL (≈ 48.3 µM), the MIC ([24]; read-out: MIC Range) was 16 µg/mL (≈ 48.3 µM) and the MIC50 [25] was 0.015 µg/mL (≈ 0.0453 µM). The MIC90 [25] was 0.015 µg/mL (≈ 0.0453 µM), the MIC ([25]; read-out: MIC Range) was 0.008 to 0.015 µg/mL (≈ 0.0241 to 0.0453 µM) and the MIC50 [26] was 0.03 µg/mL (≈ 0.0905 µM). The MIC90 [26] was 0.06 µg/mL (≈ 0.181 µM), the MIC ([26]; read-out: MIC Range) was 0.008 to 0.06 µg/mL (≈ 0.0241 to 0.181 µM) and the MIC50 [27] was 0.25 µg/mL (≈ 0.754 µM). For the same molecule, the MIC90 [27] was 0.5 µg/mL (≈ 1.51 µM), the MIC ([27]; read-out: MIC Range) was 0.12 to 0.5 µg/mL (≈ 0.362 to 1.51 µM) and the MIC [28] was 1 to 2 µg/mL (≈ 3.02 to 6.04 µM). The MIC50 [29] was 0.008 µg/mL (≈ 0.0241 µM), the MIC90 [29] was 0.03 µg/mL (≈ 0.0905 µM) and the MIC ([29]; read-out: MIC Range) was 0.004 to 0.12 µg/mL (≈ 0.0121 to 0.362 µM). The MIC50 [30] was 0.5 µg/mL (≈ 1.51 µM), the MIC90 [30] was 0.5 µg/mL (≈ 1.51 µM) and the MIC ([30]; read-out: MIC Range) was 0.12 to 0.5 µg/mL (≈ 0.362 to 1.51 µM). The MIC50 [31] was 16 µg/mL (≈ 48.3 µM), the MIC90 [31] was 32 µg/mL (≈ 96.6 µM) and the MIC90 [32] was > 128 µg/mL. The ED50 ([33]; po) was 18.3 mg/kg, the ED50 ([33]; sc) was 3.1 mg/kg and the ED50 ([34]; po) was > 100 mg/kg. The ED50 ([34]; sc) was > 50 mg/kg, the ED50 ([35]; po) was 4.1 mg/kg and the ED50 ([35]; sc) was 1 mg/kg.
